Literature values in patent publication US20200138792A1, “PHARMACEUTICAL COMBINATIONS OF ZONISAMIDE AND PRAMIPEXOLE, AND RELATED METHODS, FOR TREATING SYNUCLEINOPATHIES” (CHASE THERAPEUTICS CORPORATION, priority 2017, published 2020).

How the values were obtained:
[1] = tested on: human neuroblastoma SH-SY5Y cells
[2] = target: human wild-type alpha-synuclein (Homo sapiens, UniProt P37840); settings: hydrogen peroxide plus cytochrome c
alpha-synuclein = alpha-synuclein (Homo sapiens, UniProt P37840)
[3] = 5 mg/day of pramipexole
[4] = 25 mg-50 mg, alone or with levodopa
nigral dopamine neurons = settings: 30 mg/kg injection, 6-OHDA mice
[5] = tested on: nigrostriatal dopaminergic neurons; settings: chronic administration
A53T α-synuclein = target: T1, A53T α-synuclein (Homo sapiens, UniProt P37840, A53T); settings: 40 mg/kg/day oral
T1 construct: host or cells: rat brain in vivo, transduced with a viral vector

[6] = tested on: nigral TH-positive neurons; settings: 20 mg/kg, MPTP-treated mice

SMILES	aggregation of alpha-synuclein [1]	in vitro oligomerization of human wild-type alpha-synuclein [2]	in vitro oligomerization and aggregation of alpha-synuclein (alpha-synuclein)	toxic effects of rotenone on dopaminergic neurons (dopaminergic neurons; mouse PD model)	immunoreactivity for alpha-synuclein (dopaminergic neurons; rotenone mouse PD model)	nausea, patients affected [3]	vomiting, patients affected [3]	patients not able to complete the study ([3]; presumably intolerable GI adverse events)	motor symptoms in patients with PD [4]	loss of nigral dopamine neurons (nigral dopamine neurons)	brain-derived neurotrophic factor content in striatum and ventral midbrain vs saline [5]	survival of nigrostriatal dopaminergic neurons, striatal dopaminergic terminals and motor function vs saline [5]	survival of nigrostriatal dopamine neurons (A53T α-synuclein)	pace of degeneration vs control group (A53T α-synuclein; four weeks after injection of viral vector for A53T α-synuclein gene)	loss of nigral TH-positive neurons [6]	striatal dopamine depletion [6]
CCCN[C@H]1CCc2nc(N)sc2C1 [pramipexole, (S)-6-propylamino-4,5,6,7-tetrahydro-1,3-benzothiazole-2-amine]	inhibit	decreases	diminishes synuclein oligomer formation	inhibits	reducing	76%	39%	36%								
NS(=O)(=O)Cc1noc2ccccc12 [zonisamide, 1,2-benzisoxazole-3-methanesulfonamide]			inhibits						improve motor symptoms	prevented the loss of nigral dopamine neurons	increased	improved	no impact	significantly delayed	reduced the loss of nigral TH-positive neurons	attenuating the associated striatal dopamine depletion
